Tests used:
92.1 cells = experiment: Cell Titer-Glo cell viability, 92.1 cells; assay type: cell-based, human
Experimental: (§1) Luminescence was read using a plate reader (TECAN). Average luminescence of cells treated with DMSO was set to 100% and the % viable cells were calculated accordingly. Synergy/antagonism was analyzed using Combenefit software. […] Interactions between various combinations were evaluated using Bliss, HSA, and Loewe synergy/antagonism models. […] Cell viability was measured by CTG three days/five days after treatment.
(§2) After 24 hrs, the media was changed to 2% FBS/RPMI media. Further, the cell lines were screened for sensitivity to the PKC inhibitor, IDE196 alone or in combination with Hepatocyte growth factor (HGF) (Peprotech); at increasing doses according to Table 1 using a TECAN digital dispenser.

[1] = tested on: cMET, MAPK, PI3K and PKC signaling pathways in MM28 cells; experiment: Pharmacodynamic western blot, MM28 cells; assay type: cell-based, human
Experimental: (§3) For all experiments, cells were seeded 24 h before treatment at 2.5×10^6 cells in 10 cm^2 tissue culture plates in 10% RPMI media. For IDE196-HGF combinations, cells were treated with the IDE196 and HGF combinations in 2% RPMI media for 2 hrs according to Table 3. For IDE196-MET inhibitor experiments, 24 h after seeding, the media was replaced with the appropriate inhibitor combinations in 2% RPMI media in the presence of 1.23-3.7 ng/ml HGF for 2 h, according to Table 4.
(§4) For all experiments, cells were washed with ice cold PBS and protein lysates were prepared by lysing cells in a RIPA buffer containing protease and phosphatase inhibitors. Protein samples (15ug/well) were separated on 4-20% Bis-Tris SDS gels and electroblotted to nitrocellulose membranes using iBlot (Invitrogen). The membranes were incubated for 1b in Superblock buffer at RT, followed by overnight incubation with primary antibody at 4° C. The primary antibodies Phospho-Met (Tyr1234/1235) (3077S), cMET (3148S), Phospho-Akt (Ser473) (4060S), Akt (pan) (2920S), Phospho-MARCKS (Ser159/163) (11992S), MARCKS (5607S), PKCδ (9616S), Phospho-p44/42 MAPK (ERK1/2) (Thr202/Tyr204) (4377S), pRAS40 were obtained from Cell Signaling. Total ERK (ab184699) and PKC delta (phospho S299) (ab133456) antibodies were from Abcam. After three washes in PBST, the membrane was incubated with HRP-conjugated secondary antibody for 1 h at RT, washed thrice in PBST, and detected using enhanced chemiluminescence (Biorad Chemidoc XRS).

MEL-202 cells = experiment: Cell Titer-Glo cell viability, MEL-202 cells; assay type: cell-based, human
Experimental: as §1, §2

[2] = tested on: cMET, MAPK, PI3K and PKC signaling pathways in 92.1 cells; experiment: Pharmacodynamic western blot, 92.1 cells; assay type: cell-based, human
Experimental: as §3, §4

MM28 cells = experiment: Cell Titer-Glo cell viability, MM28 cells; assay type: cell-based, human
Experimental: as §1, §2

[3] = tested on: cMET, MAPK, PI3K and PKC signaling pathways in MEL-202 cells; experiment: Pharmacodynamic western blot, MEL-202 cells; assay type: cell-based, human
Experimental: as §3, §4

[4] = patient; cited from earlier work
[5] = presence of HGF, IDE196 alone and in combination with crizotinib
[6] = presence of HGF, IDE196 alone, up to highest concentrations
[7] = presence of HGF, crizotinib alone or in combination with IDE196
[8] = dose-dependent, not inhibited by addition of IDE196
[9] = at or above 3.7 ng/mL HGF, all concentrations of IDE196, HSA, Loewe, Bliss

CC1(N)CCN(c2cccnc2NC(=O)c2nc(-c3ncccc3C(F)(F)F)cnc2N)CC1 [IDE196, 3-amino-N-(3-(4-amino-4-methylpiperidin-1-yl)pyridin-2-yl)-6-(3-(trifluoromethyl)pyridin-2-yl)pyrazine-2-carboxamide]
EC50 (92.1 cells; Homo sapiens, 72 h, IDE196 alone, day 3, N=3, read-out: inhibition of cell viability EC50): 113 nM | pMARCKS and pPKC-delta ([1]; IDE196 treatment alone): dose-dependent decrease | dose at which pERK was inhibited ([1]; absence of HGF, 2 h): above 400 nM | effect on pAKT or pPRAS40 ([1]; presence of HGF, IDE196 alone): no effect | pMARCKS or pPKCδ [1, 5]: dose-dependent decrease | pERK inhibition [1, 6]: did not inhibit | EC50 (MEL-202 cells; Homo sapiens, Mel202, 72 h, IDE196 alone, day 3, N=3, read-out: inhibition of cell viability EC50): 250 nM | pMARCKS and pPKC-delta ([2]; IDE196 treatment alone): dose-dependent decrease | dose at which pERK was inhibited ([2]; absence of HGF, 2 h): above 400 nM | effect on pAKT or pPRAS40 ([2]; presence of HGF, IDE196 alone): no effect | pMARCKS or pPKCδ [2, 5]: dose-dependent decrease | pERK inhibition [2, 6]: did not inhibit | EC50 (MM28 cells; Homo sapiens, 120 h, IDE196 alone, day 5, N=3, read-out: inhibition of cell viability EC50): 342 nM | pMARCKS and pPKC-delta ([3]; IDE196 treatment alone): dose-dependent decrease | dose at which pERK was inhibited ([3]; absence of HGF, 2 h): above 400 nM | effect on pAKT or pPRAS40 ([3]; presence of HGF, IDE196 alone): no effect | pMARCKS or pPKCδ [3, 5]: dose-dependent decrease | pERK inhibition [3, 6]: did not inhibit

CNC(=O)c1ccc(-c2cnc3ncc(Cc4ccc5ncccc5c4)n3n2)cc1F [capmatinib, reference compound]
synergy with IDE196 on cell viability (92.1 cells; 1.23 ng/ml HGF, capmatinib, any dose combination): did not synergize | half-life [4]: about 6.5 hours | synergy with IDE196 on cell viability (MEL-202 cells; 1.23 ng/ml HGF, all doses of capmatinib, starting at 80 nM IDE196): high synergy | synergy with IDE196 on cell viability (MM28 cells; 1.23 ng/ml HGF, capmatinib, all the doses): high synergy

C[C@@H](Oc1cc(-c2cnn(C3CCNCC3)c2)cnc1N)c1c(Cl)ccc(F)c1Cl [crizotinib, reference compound]
HGF induced pMET, pERK, pAKT and pPRAS40 levels [1, 7]: strongly inhibited | pERK, pAKT and pPRAS40 ([2]; presence of HGF, higher concentrations of crizotinib alone or in combination with IDE196): modest decrease | HGF induced pMET, pERK, pAKT and pPRAS40 levels [3, 7]: strongly inhibited

HGF: Hepatocyte growth factor (Peprotech), the endogenous ligand for the extracellular cMET receptor
antagonism of IDE196 induced growth inhibition by HGF (92.1 cells; 1.23 to 33.33 ng/ml HGF, HSA, Loewe, Bliss): modest antagonism | cell viability on exposure to exogeneous HGF (92.1 cells; HGF alone): not | pERK (MAPK signaling), pAKT and pPRAS40 (PI3K signaling) on addition of HGF [1, 8]: induced | cell viability on exposure to exogeneous HGF (MEL-202 cells; HGF alone): increased cell viability significantly | antagonism of IDE196 induced growth inhibition by HGF (MEL-202 cells; [9]): high antagonism | pERK (MAPK signaling), pAKT and pPRAS40 (PI3K signaling) on addition of HGF [2, 8]: induced | cell viability on exposure to exogeneous HGF (MM28 cells; HGF alone): increased cell viability significantly | antagonism of IDE196 induced growth inhibition by HGF (MM28 cells; [9]): high antagonism | pERK (MAPK signaling), pAKT and pPRAS40 (PI3K signaling) on addition of HGF [3, 8]: induced

Source: patent US20250017921A1, “PHARMACEUTICAL COMBINATION AND TUMOR TREATMENT” (IDEAYA Biosciences Inc., priority 2020, published 2025)
